The species named for data set [1] is Cavia porcellus. As to the kind of experiment: Bronchodialatory activity against electrically-stimulated contraction in guinea pig trachea assessed as inhibition of recovery of contractile effect measured after 3 hrs of drug washout. Type of data set: functional, tissue-based.
In data set [2] the target is Beta-2 adrenergic receptor (Homo sapiens, UniProt P07550).
Description: Agonist activity at human recombinant beta2 adrenergic receptor expressed in CHO cells assessed as induction of intracellular cAMP accumulation after 30 to 45 mins
Data set [3] has as its target Beta-1 adrenergic receptor (Homo sapiens, UniProt P08588).
Description: Agonist activity at human recombinant beta-1 adrenergic receptor expressed in CHO cells assessed as induction of intracellular cAMP accumulation after 30 to 45 mins
In data set [4] the target is Beta-3 adrenergic receptor (Homo sapiens, UniProt P13945).
Description: Agonist activity at human recombinant beta3 adrenergic receptor expressed in CHO cells assessed as induction of intracellular cAMP accumulation after 30 to 45 mins
Data set [5] in a line: Bronchodialatory activity against electrically-stimulated contraction in guinea pig trachea assessed as time taken for inducing 50% maximum relaxant effect.
The nature of data set [6]: Solubility at pH 7.4. Type of data set: physicochemical. Conditions: buffer.
The species named for data set [7] is Cavia porcellus. As to the kind of experiment: Bronchodialatory activity against electrically-stimulated contraction in guinea pig trachea assessed as inhibition of recovery of contractile effect measured after 1 hr of drug washout. Type of data set: functional, tissue-based.
In data set [8] the test system is Cavia porcellus. As to the kind of experiment: Ex vivo bronchodilatory activity against histamine-induced bronchospasm in guinea pig assessed as time taken for 50% recovery of bronchospasm at EC90 administered via nebulizer. Type of data set: functional.
Data set [9] has as its system Cavia porcellus. The experiment in a line: Ex vivo bronchodilatory activity in guinea pig assessed as protection against histamine-induced bronchospasm administered via nebulizer. Type of data set: functional.
Data set [10] in a line: Oral bioavailability in rat. Type of data set: ADME, organism-based. Conditions: in vivo.
Data set [11] concerns Cavia porcellus. As to the kind of experiment: Ex vivo bronchodilatory activity against histamine-induced bronchospasm in guinea pig assessed as time taken for 50% recovery of bronchospasm at 10-fold EC90 administered via nebulizer. Type of data set: functional.
A short description of data set [12]: Oral bioavailability in Han Wistar rat at 2 mg/kg after 8 hrs by LC/MS/MS analysis. Type of data set: ADME, organism-based. As to conditions: in vivo.
Data set [13] is described as follows: Volume of distribution at steady state in Han Wistar rat at 0.25 mg/kg, iv after 8 hrs by LC/MS/MS analysis. Type of data set: ADME, organism-based. Details: dose 0.25 mg/kg, route intravenous. Conditions: in vivo, read-out: Vdss.
Data set [14] is described as follows: Half life in Han Wistar rat at 0.25 mg/kg, iv by LC/MS/MS analysis. Type of data set: ADME, organism-based. Set-up: dose 0.25 mg/kg, route intravenous. Conditions: in vivo.
The nature of data set [15]: Cmax in Han Wistar rat at 2 mg/kg, po after 8 hrs by LC/MS/MS analysis. Type of data set: ADME, organism-based. Conditions: in vivo. Details: dose 2 mg/kg, route oral.
Data set [16] can be described thus: Plasma clearance in Han Wistar rat at 0.25 mg/kg, iv after 8 hrs by LC/MS/MS analysis. Type of data set: ADME, organism-based. Set-up: dose 0.25 mg/kg, route intravenous.

The structures appear in SMILES notation. The source made the active and inactive calls.

Sequence of Beta-2 adrenergic receptor (P07550 whole entry): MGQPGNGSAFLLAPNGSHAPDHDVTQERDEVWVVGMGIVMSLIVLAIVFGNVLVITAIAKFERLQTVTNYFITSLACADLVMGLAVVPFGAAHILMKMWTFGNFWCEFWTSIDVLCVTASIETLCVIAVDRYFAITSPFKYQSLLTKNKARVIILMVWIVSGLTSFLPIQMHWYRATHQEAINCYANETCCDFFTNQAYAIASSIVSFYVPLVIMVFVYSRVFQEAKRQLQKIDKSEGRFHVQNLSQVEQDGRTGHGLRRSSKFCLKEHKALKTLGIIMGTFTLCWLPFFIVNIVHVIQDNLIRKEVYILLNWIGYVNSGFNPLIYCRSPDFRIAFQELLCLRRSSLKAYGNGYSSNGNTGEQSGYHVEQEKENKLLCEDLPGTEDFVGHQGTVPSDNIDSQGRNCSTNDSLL
Sequence of Beta-1 adrenergic receptor (P08588 whole entry): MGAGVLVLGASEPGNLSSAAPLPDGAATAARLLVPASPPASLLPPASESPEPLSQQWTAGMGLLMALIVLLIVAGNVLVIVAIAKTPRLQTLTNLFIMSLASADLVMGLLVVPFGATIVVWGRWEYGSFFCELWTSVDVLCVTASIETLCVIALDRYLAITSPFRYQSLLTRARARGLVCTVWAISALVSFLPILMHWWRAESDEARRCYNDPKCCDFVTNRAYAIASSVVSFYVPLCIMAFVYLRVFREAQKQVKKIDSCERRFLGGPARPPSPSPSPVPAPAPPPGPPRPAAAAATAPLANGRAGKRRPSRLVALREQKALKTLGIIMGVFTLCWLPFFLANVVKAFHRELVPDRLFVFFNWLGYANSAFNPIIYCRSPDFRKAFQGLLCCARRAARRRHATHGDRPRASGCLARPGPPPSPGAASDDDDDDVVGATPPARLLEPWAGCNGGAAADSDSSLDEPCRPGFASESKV
Sequence of Beta-3 adrenergic receptor (P13945 whole entry): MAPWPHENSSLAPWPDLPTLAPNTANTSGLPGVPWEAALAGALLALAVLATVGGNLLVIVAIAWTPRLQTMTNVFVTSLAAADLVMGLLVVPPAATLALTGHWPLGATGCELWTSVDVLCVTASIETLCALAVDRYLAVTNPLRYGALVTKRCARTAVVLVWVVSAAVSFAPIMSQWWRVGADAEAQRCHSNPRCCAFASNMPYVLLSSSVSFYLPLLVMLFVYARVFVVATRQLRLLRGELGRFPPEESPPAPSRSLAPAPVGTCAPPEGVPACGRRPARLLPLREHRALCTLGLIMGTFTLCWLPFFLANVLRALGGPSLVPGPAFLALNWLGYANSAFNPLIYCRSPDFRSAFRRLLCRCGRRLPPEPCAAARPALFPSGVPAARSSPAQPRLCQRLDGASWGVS

For the compound `CC(=O)O.OCc1cc([C@@H](O)CNCCCCCCOCCOCc2ccccc2)ccc1O`, the outcome in the data set filed under Cavia porcellus [1] was Active. For the same compound, the 50% effective concentration (EC50) in data set [2] was 2.51 nM; in data set [3] it was 31.6 nM; in data set [4] it was 39.8 nM. For the same compound, in data set [5], the Time worked out at 4.8 min.

Turning to `NS(=O)(=O)c1cccc(COCCOCCCCCCNC[C@H](O)c2ccc(O)c(CO)c2)c1`, the EC50 was 1.58 nM in [2], 50.1 nM in data set [3] and 126 nM in data set [4].

`O=C(O)C(c1ccccc1)(c1ccccc1)c1ccccc1.OCc1cc([C@@H](O)CNCCCCCCOCCOCc2c(Cl)cccc2Cl)ccc1O` [VILANTEROL TRIFENATATE] had a solubility in data set [6] of 33 µg/mL.

In the case of `CC(=O)O.OCc1cc([C@@H](O)CNCCCCCCOCCOCc2cccc3ccccc23)ccc1O`, the outcome in the data set listed under Cavia porcellus [1] and in the data set listed under Cavia porcellus [7] was Active. In addition, the values for the EC50 in [2], in [3] and in data set [4] were 0.126 nM, 12.6 nM and 5.01 nM, respectively. Further, the Time in data set [5] is on record as 10.2 min.

With `O=C(O)/C(=C/c1ccccc1)c1ccccc1.OCc1cc([C@@H](O)CNCCCCCCOCCOCc2c(Cl)cccc2Cl)ccc1O` [VILANTEROL .ALPHA.-PHENYL CINNAMATE], in [6], the concentration in solution (solubility) came to 190 µg/mL.

For the compound `OCCOCCCCCCNC[C@H](O)c1ccc(O)c(CO)c1`, the concentration for a half-maximal effect (EC50) in data set [4] is 12600 nM.

As to `NS(=O)(=O)c1ccc(COCCOCCCCCCNC[C@H](O)c2ccc(O)c(CO)c2)cc1`, the EC50 in data set [2] was 2 nM; in data set [3], 100 nM; in data set [4] it was 398 nM.

With `OCc1cc(C(O)CNCCCCCCOCCCCc2ccccc2)ccc1O` (stereo not given) [SALMETEROL], the Time in the data set with Cavia porcellus [8] stood at 10 h. Besides, the outcome in the data set listed under Cavia porcellus [1] and in the data set filed under Cavia porcellus [7] was Active. Besides, the EC90 with Cavia porcellus [9] was 50000 nM. Moreover, in data set [10], the bioavailability turned out to be 10%.

`CS(=O)(=O)Nc1cccc(COCCOCCCCCCNC[C@H](O)c2ccc(O)c(CO)c2)c1`: the concentration giving a half-maximal response (EC50) in data set [2] is 0.251 nM; in data set [3], 12.6 nM; in data set [4], 79.4 nM.

Take `CC(=O)O.OCc1cc([C@@H](O)CNCCCCCCOCCOCc2c(Cl)cccc2Cl)ccc1O` [VILANTEROL ACETATE]: the EC90 in the data set with Cavia porcellus [9] amounted to 30000 nM. In addition, the Time with Cavia porcellus [11] is 17 h; in data set [5] it was 6.6 min. The compound further gave a bioavailability in data set [12] of less than 5%. Moreover, the concentration for a half-maximal effect (EC50) in data set [4] is 794 nM. The Vd in [13] was 4.4 L/kg. Moreover, in data set [14], the half-life was 48 min. The compound also returned a Cmax in data set [15] of less than 2 ng/mL. The same compound gave a clearance in data set [16] of 123 mL/min/kg.

For `OCc1cc([C@@H](O)CNCCCCCCOCCOCc2ccc(O)cc2)ccc1O`, the EC50 was 7.94 nM in [2], 79.4 nM in data set [3] and 63.1 nM in [4].

On to `OCc1cc([C@@H](O)CNCCCCCCOCCOCc2cccc(O)c2)ccc1O`, for which the EC50 was 20 nM in data set [3] and 31.6 nM in [4].

Regarding `Cc1ccc(COCCOCCCCCCNC[C@H](O)c2ccc(O)c(CO)c2)cc1`, the 50% effective concentration (EC50) in data set [2] is 2.51 nM.

Take `OCc1cc([C@@H](O)CNCCCCCCOCCOCc2cc(Cl)ccc2Cl)ccc1O`: the EC50 in [3] is 12.6 nM; in data set [4], 7.94 nM.

On to `NC(=O)Nc1cccc(COCCOCCCCCCNC[C@H](O)c2ccc(O)c(CO)c2)c1`, for which the EC50 is 1.58 nM in [2], 20 nM in data set [3] and 316 nM in [4].

On to `CC(=O)O.Cc1cc(C)cc(COCCOCCCCCCNC[C@H](O)c2ccc(O)c(CO)c2)c1`, for which the values for the 50% effective concentration (EC50) in [3] and in data set [4] were 7.94 nM and 5.01 nM, respectively. Moreover, the result in the data set listed under Cavia porcellus [7] was Active. The Time in data set [5] was found to be 6.9 min.

As for `OCc1cc([C@@H](O)CNCCCCCCOCCOCc2c(Cl)cccc2Cl)ccc1O`, the result in the data set filed under Cavia porcellus [1] and in the data set filed under Cavia porcellus [7] was Active.

In data set [2], `OCc1cc([C@@H](O)CNCCCCCCOCCOCc2ccc(Cl)cc2)ccc1O` showed an EC50 of 2.51 nM.

Usually EC50 stands for the concentration that produces a half-maximal response. Low values mean greater potency, high ones weaker potency. A word on the solubility: it is the dissolved amount per volume that the medium holds. Read a low solubility as little dissolved substance. In general, EC90 refers to the concentration at which the effect reaches the 90% level. As usually defined, the bioavailability is the share of a dose that reaches the circulation, judged against a reference dose that is usually intravenous. High values mean good availability, low ones poor availability. As a reminder, the half-life is the time needed for the level to fall by half in the phase considered. A low value points to fast loss. For orientation: Cmax means the maximum level reached in the sampled fluid or tissue. The term clearance denotes the volume of plasma or blood freed of the substance per unit of time. Low values mean a low capacity for elimination, high ones a high capacity for elimination.

The values above are taken from ChEMBL document CHEMBL1155518, “Synthesis and structure-activity relationships of long-acting beta2 adrenergic receptor agonists incorporating metabolic inactivation: an antedrug approach” (J Med Chem, 2010).
